From publication PMC12155096 (International Journal of Molecular Sciences, 2025)
Where a name gives a salt, the structure may show the parent alone.

Tests used:
human CYP1A2 = molecular target: T1, human CYP1A2 (Homo sapiens, UniProt P05177)
T1 sequence (P05177 1-516): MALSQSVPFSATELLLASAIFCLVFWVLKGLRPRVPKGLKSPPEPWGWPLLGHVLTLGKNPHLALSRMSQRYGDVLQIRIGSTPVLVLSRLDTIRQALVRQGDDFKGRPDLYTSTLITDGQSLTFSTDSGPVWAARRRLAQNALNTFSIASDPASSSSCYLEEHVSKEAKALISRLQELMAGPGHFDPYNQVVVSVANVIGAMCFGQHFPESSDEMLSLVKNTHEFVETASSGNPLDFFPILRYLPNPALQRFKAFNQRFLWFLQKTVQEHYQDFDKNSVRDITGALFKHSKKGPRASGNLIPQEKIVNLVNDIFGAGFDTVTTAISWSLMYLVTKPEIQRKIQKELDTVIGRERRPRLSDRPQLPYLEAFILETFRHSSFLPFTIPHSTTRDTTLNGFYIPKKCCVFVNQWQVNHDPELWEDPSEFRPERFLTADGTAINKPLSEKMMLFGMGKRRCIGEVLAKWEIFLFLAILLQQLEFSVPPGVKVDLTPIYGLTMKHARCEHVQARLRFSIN

human CYP2C9 = human CYP2C9 (Homo sapiens, UniProt P11712)
Sequence of human CYP2C9 (P11712 whole entry): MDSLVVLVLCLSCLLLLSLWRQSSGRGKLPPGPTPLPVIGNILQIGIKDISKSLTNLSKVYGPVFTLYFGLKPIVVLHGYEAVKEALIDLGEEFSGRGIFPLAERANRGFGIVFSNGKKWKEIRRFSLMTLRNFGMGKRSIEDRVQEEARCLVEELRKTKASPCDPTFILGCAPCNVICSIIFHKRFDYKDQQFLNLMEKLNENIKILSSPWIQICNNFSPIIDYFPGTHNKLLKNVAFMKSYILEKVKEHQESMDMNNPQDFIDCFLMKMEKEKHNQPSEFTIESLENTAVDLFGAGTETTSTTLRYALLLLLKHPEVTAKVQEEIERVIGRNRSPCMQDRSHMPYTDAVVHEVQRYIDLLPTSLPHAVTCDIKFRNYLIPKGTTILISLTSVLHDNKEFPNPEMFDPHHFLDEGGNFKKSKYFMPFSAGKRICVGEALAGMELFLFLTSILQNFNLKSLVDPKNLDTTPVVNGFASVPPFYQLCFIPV

human CYP2D6 = human CYP2D6 (Homo sapiens, UniProt P10635)
Sequence of human CYP2D6 (P10635 whole entry): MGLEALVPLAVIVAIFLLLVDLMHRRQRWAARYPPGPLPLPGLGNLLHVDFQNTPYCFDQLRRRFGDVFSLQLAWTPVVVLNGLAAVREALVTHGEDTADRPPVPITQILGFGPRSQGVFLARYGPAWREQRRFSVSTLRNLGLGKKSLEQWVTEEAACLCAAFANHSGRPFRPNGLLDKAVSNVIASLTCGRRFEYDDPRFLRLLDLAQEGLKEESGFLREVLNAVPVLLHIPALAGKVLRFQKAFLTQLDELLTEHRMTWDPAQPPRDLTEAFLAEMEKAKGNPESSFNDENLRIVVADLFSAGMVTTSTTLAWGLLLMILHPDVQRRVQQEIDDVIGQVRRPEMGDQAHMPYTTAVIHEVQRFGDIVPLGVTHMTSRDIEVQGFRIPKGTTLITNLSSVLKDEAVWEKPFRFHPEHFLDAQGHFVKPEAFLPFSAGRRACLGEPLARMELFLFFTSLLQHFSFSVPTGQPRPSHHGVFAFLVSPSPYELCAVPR

human CYP2C19 = human CYP2C19 (Homo sapiens, UniProt P33261)
Sequence of human CYP2C19 (P33261 whole entry): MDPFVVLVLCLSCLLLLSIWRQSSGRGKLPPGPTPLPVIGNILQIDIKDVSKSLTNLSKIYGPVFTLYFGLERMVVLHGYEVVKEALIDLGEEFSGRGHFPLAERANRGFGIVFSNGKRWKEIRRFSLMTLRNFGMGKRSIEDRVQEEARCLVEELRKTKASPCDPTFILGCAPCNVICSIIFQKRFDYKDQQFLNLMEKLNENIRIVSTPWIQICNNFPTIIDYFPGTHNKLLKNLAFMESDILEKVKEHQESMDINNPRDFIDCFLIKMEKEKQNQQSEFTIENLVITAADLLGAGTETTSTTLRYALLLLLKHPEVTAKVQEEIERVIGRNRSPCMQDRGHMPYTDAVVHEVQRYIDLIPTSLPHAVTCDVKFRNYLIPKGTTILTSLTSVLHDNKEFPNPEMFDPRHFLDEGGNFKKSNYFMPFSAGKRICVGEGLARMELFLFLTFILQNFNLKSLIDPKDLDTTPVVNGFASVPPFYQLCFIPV

CYP3A4 = CYP3A4 (Homo sapiens, UniProt P08684)
Sequence of CYP3A4 (P08684 whole entry): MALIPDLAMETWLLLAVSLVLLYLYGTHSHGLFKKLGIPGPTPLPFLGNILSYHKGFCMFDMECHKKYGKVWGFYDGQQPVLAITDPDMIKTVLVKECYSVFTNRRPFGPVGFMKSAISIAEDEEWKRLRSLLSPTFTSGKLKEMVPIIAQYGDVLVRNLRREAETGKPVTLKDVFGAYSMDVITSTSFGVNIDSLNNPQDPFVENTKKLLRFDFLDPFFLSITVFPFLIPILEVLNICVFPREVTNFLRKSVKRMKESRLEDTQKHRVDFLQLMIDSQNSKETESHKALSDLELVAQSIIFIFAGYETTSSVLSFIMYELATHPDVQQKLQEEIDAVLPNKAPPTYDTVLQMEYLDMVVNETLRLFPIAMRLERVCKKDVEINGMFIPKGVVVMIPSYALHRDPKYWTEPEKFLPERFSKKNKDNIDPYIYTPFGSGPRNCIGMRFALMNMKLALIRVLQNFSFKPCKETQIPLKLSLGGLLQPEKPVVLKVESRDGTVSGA

SMILES	AC50 (human CYP1A2)	AC50 (human CYP2D6)	CYP2C19 AC50 (half-maximal activity concentration) (human CYP2C19)	AC50 (CYP3A4)	AC50 (human CYP2C9)	AC50 (human CYP2C19)	CYP2D6 AC50 (half-maximal activity concentration) (human CYP2D6)	CYP1A2 AC50 (half-maximal activity concentration) (human CYP1A2)	other results
CCCOc1ccc2c(c1)CC[C@@H]1[C@@H]2CC[C@]2(C)[C@@H](OC)CC[C@@H]12 [Promestriene]	33.7 µM	21.5 µM	Inconclusive inhibitor	9.46 µM					CYP2C9 AC50 (half-maximal activity concentration) (human CYP2C9): Inconclusive inhibitor
CC(C)(c1ccc(Oc2ccc3c(c2)C(=O)OC3=O)cc1)c1ccc(Oc2ccc3c(c2)C(=O)OC3=O)cc1	63.2 µM	37.9 µM	Inconclusive inhibitor	23.4 µM					CYP2C9 AC50 (half-maximal activity concentration) (human CYP2C9): Inconclusive inhibitor
O=S1(=O)CC(Cl)(Cl)C(Cl)(Cl)C1	31.2 µM	48.8 µM		30.8 µM	27.5 µM	60.4 µM			
CC(C)C(=O)OCCOc1ccccc1 [Phenoxyethyl isobutyrate]	31.9 µM			22.6 µM	36 µM	38.5 µM	Inactive		
O=C(O)CC(C(=O)O)S(=O)(=O)O (stereo not shown) [Sulfosuccinic acid]	33 µM	60.6 µM		43.2 µM		11.9 µM			CYP2C9 AC50 (half-maximal activity concentration) (human CYP2C9): Inactive
CCCCCCC(O)CCCCCCCCCCC(=O)OC (stereo not shown) [Methyl 12-hydroxyoctadecanoate]			Inactive	27.7 µM	23.8 µM		Inactive	Inconclusive inhibitor	
C=C(C)C(=O)OCCOc1ccccc1	24.5 µM			19.8 µM	38.6 µM	28.6 µM	Inactive		
CCCCCCCCc1ccc(S(=O)(=O)[O-])cc1.[Na+] [Sodium 4-octylbenzenesulfonate]			Inactive	63.9 µM	76.8 µM		Inactive	Inactive	
Nc1ccc(Cl)cc1C(=O)c1ccccc1F [2-Amino-5-chloro-2'-fluorobenzophenone]	14.4 µM			8.75 µM	16.1 µM	11.9 µM	Inactive		
CCOP(=S)(OCC)Oc1cc(Cl)c(Br)cc1Cl [Bromophos-ethyl]									CYP1A2 Efficacy (in parenthesis) (human CYP1A2; human): 3.3 ± 0.22 (-98 ± 3) %; CYP2C9 Efficacy (in parenthesis) (human CYP2C9; human): 2.36 ± 0.42 (-102 ± 2) %; CYP2D6 IC50 (half-maximal inhibitory concentration) (human CYP2D6): Inactive; CYP2C19 Efficacy (in parenthesis) (human CYP2C19; human): 0.71 ± 0.08 (-121 ± 12) %; CYP3A4 Efficacy (in parenthesis) (CYP3A4): 1.97 ± 0.48 (-79 ± 2) %
CCCCCC[C@@H](CCC)C(=O)O [(2R)-2-Propyloctanoic acid]			Inconclusive activator	31 µM	34.7 µM		Inactive	Inactive	
CCOC(=O)c1ccc(NC(=O)CN2CCCCC2)cc1 [Sulcaine]	22.2 µM	16.8 µM	Inactive	26.4 µM	37.8 µM				
C[As+](C)(C)CC(=O)[O-] [Arsenobetaine]			Inactive	47.7 µM			Inactive	Inactive	CYP2C9 AC50 (half-maximal activity concentration) (human CYP2C9): Inactive
CN1C(=O)N(c2ccccc2Br)Cc2cnc(Nc3ccc4c(c3)OCC(CO)O4)nc21 (stereo not shown) [PharmaGSID_48519]	30.7 µM	56.6 µM		1.4 µM	12.2 µM	5.72 µM			
C/C=C1/C(=O)C[C@H]2[C@@H]3CCC4=CC(=O)CC[C@]4(C)[C@H]3CC[C@]12C [Guggulsterone E]				1.82 µM	19.6 µM	4.67 µM	Inactive	Inconclusive inhibitor	
CCN(CC)c1ccc2c(C)cc(=O)oc2c1 [7-Diethylamino-4-methylcoumarin]	1.9 µM	58.5 µM		32.4 µM	4.6 µM	36 µM			
c1ccc(CCCc2ccccn2)cc1 [2-(3-Phenylpropyl)pyridine]	31.2 µM	53.2 µM		8.01 µM	33.1 µM	7.19 µM			
c1ccc(SCCSc2ccccc2)cc1 [1,2-Bis(phenylthio)ethane]	29.2 µM	56.1 µM		8.36 µM	31.4 µM	3.06 µM			

SMILES	AC50 (human CYP1A2)	AC50 (human CYP2D6)	CYP2C19 AC50 (half-maximal activity concentration) (human CYP2C19)	AC50 (CYP3A4)	AC50 (human CYP2C9)	AC50 (human CYP2C19)	CYP2D6 AC50 (half-maximal activity concentration) (human CYP2D6)	CYP1A2 AC50 (half-maximal activity concentration) (human CYP1A2)	other results
CN(C)CCc1c[nH]c2ccccc12.O=C(O)/C=C/C(=O)O [N,N-Dimethyltryptamine fumarate]		34.6 µM	Inactive	89.9 µM				Inactive	CYP2C9 AC50 (half-maximal activity concentration) (human CYP2C9): Inactive
Nc1ccccc1S(=O)(=O)c1ccccc1 [2-(Phenylsulfonyl)aniline]	50.5 µM			71 µM	8.25 µM	17.8 µM	Inactive		
CN(C)C1CSSSC1.O=C(O)C(=O)O [Thiocyclam oxalate]	61 µM	38.5 µM		33 µM	28.3 µM	38.5 µM			
CC1(C)[C@H](C(=O)OCc2cccc(Oc3ccccc3)c2)[C@@H]1C=C(Cl)Cl [cis-Permethrin in cyclohexane]			Inactive				Inactive	Inactive	CYP2C9 AC50 (half-maximal activity concentration) (human CYP2C9): Inactive; CYP3A4 AC50 (half-maximal activity concentration) (CYP3A4): Inactive
CC(=O)[O-].CC(=O)[O-].CC(=O)[O-].[Cr+3] [Chromium(III) acetate]			Inactive	69.6 µM	96.3 µM		Inactive	Inactive	
O=C([O-])CCCOc1ccc(Cl)cc1Cl.[Na+] [2,4-DB-sodium]			Inconclusive inhibitor	46.2 µM	60.6 µM		Inactive	Inactive	
CC(C)CC(O)Cc1ccccc1 (stereo not shown) [4-Methyl-1-phenyl-2-pentanol]	37 µM			34.3 µM		37 µM	Inactive		CYP2C9 AC50 (half-maximal activity concentration) (human CYP2C9): Inconclusive inhibitor
CCOC(=O)C1=NOC(c2ccccc2)(c2ccccc2)C1 [Isoxadifen-ethyl]				34.3 µM	8.36 µM	21.6 µM	Inconclusive activator	Inconclusive inhibitor	
CC1=Nc2ccc3ccccc3c2C1(C)C [1,1,2-Trimethyl-1H-benzo[e]indole]	26.7 µM	54 µM		2.84 µM	51.7 µM	10.1 µM			
CCOC(=O)COc1ccc(Cl)cc1Cl [2,4-D-ethyl ester]	30.8 µM			17.1 µM	55.5 µM	26.8 µM	Inconclusive inhibitor		
CCOC(=O)CC(CC(=O)OCC)(OC(C)=O)C(=O)OCC [Acetyltriethyl citrate]				43.5 µM	30.6 µM	18.1 µM	Inactive	Inconclusive inhibitor	
CCC(=O)Oc1ccc2c(c1)CC[C@@H]1[C@@H]2CC[C@@]2(C)[C@H]1C[C@@H](OC(=O)CC)[C@@H]2OC(=O)CC [Estriol tripropionate]				4.92 µM	19.8 µM	29.9 µM	Inconclusive inhibitor	Inconclusive inhibitor	
O=C(OCCCCCOC(=O)c1ccccc1)c1ccccc1 [Pentane-1,5-diyl dibenzoate]	8.29 µM			26.9 µM	10.5 µM	48.1 µM	Inactive		
CCCCC/C(=C\c1ccccc1)CO [alpha-Amylcinnamyl alcohol]	3.72 µM			13.7 µM	36.6 µM	1.66 µM	Inconclusive inhibitor		
CCOC(=O)N1CCC(n2c(=O)[nH]c3cc(Cl)ccc32)CC1	22.6 µM			6.72 µM	9.24 µM	16.6 µM	Inactive		
CC(C)(C)c1ccc(OP(=O)(Oc2ccccc2)Oc2ccccc2)cc1 [tert-Butylphenyl diphenyl phosphate]	18 µM			8.02 µM	5.93 µM	5.26 µM	Inactive		
O=C(c1ccccc1)c1cccc(O)c1 [3-Hydroxybenzophenone]	36.2 µM	54.1 µM			3.99 µM	23.9 µM			CYP3A4 AC50 (half-maximal activity concentration) (CYP3A4): Inactive
